These are literature values, as cited in patent US12673918B2, “Small molecule RPN13 inhibitors with antitumor properties” (The Johns Hopkins University, priority 2019, dated 2026).

As usually defined, the IC50 is the concentration needed to halve the response being measured.

The structures appear in SMILES notation.

The test system of this data set is NF-κB. To be noted: 293T cells stably expressing NFkB-Luc reporter; previously observed (13); read-out: IC50 of NF-κB signaling inhibition; cited from earlier work.

With `N[C@@H](Cc1ccccc1)C(=O)N1C/C(=C\c2ccc([N+](=O)[O-])cc2)C(=O)/C(=C/c2ccc([N+](=O)[O-])cc2)C1` [RA183, reference compound], the 50% inhibitory concentration (IC50) was 100 nM.
